What was measured:
Assay in all cases: Glasshouse herbicidal test, pre- and post-emergence, percentage damage to the plant
Type in all cases: in vivo
[1] = test system: Alopecurus myosuroides (ALOMY); details: 250 g/h, evaluated after 13 days; for ALOMY POST percentage damage caused to the plant (five-point scale): post-emergence; for ALOMY PRE percentage damage caused to the plant (five-point scale): pre-emergence
Description: (§1) Seeds of a variety of test species are sown in standard soil in pots (Lolium perenne (LOLPE), Setaria faberi (SETFA), Alopecurus myosuroides (ALOMY), Echinochloa crus-galli (ECHCG), Avena fatua (AVEFA)). After cultivation for one day (pre-emergence) or after 8 days cultivation (post-emergence) under controlled conditions in a glasshouse (at 24/16° C., day/night; 14 hours light; 65% humidity), the plants are sprayed with an aqueous spray solution derived from the formulation of the technical active ingredient in acetone/water (50:50) solution containing 0.5% Tween 20 (polyoxyethelyene sorbitan monolaurate, CAS RN 9005-64-5). Compounds are applied at 250 g/h. The test plants are then grown in a glasshouse under controlled conditions in a glasshouse (at 24/16° C., day/night; 14 hours light; 65% humidity) and watered twice daily. After 13 days for pre and post-emergence, the test is evaluated for the percentage damage caused to the plant. The biological activities are shown in the following table on a five-point scale (5=80-100%; 4=60-79%; 3=40-59%; 2=20-39%; 1=0-19%).

[2] = test system: Avena fatua (AVEFA); details: 250 g/h, evaluated after 13 days; for AVEFA POST percentage damage caused to the plant (five-point scale): post-emergence; for AVEFA PRE percentage damage caused to the plant (five-point scale): pre-emergence
Description: as §1

[3] = test system: Echinochloa crus-galli (ECHCG); details: 250 g/h, evaluated after 13 days; for ECHCG POST percentage damage caused to the plant (five-point scale): post-emergence; for ECHCG PRE percentage damage caused to the plant (five-point scale): pre-emergence
Description: as §1

[4] = test system: Lolium perenne (LOLPE); details: 250 g/h, evaluated after 13 days; for LOLPE POST percentage damage caused to the plant (five-point scale): post-emergence; for LOLPE PRE percentage damage caused to the plant (five-point scale): pre-emergence
Description: as §1

[5] = test system: Setaria faberi (SETFA); details: 250 g/h, evaluated after 13 days; for SETFA POST percentage damage caused to the plant (five-point scale): post-emergence; for SETFA PRE percentage damage caused to the plant (five-point scale): pre-emergence
Description: as §1

| Compound | ALOMY POST percentage damage caused to the plant (five-point scale) [1] | ALOMY PRE percentage damage caused to the plant (five-point scale) [1] | AVEFA POST percentage damage caused to the plant (five-point scale) [2] | AVEFA PRE percentage damage caused to the plant (five-point scale) [2] | ECHCG POST percentage damage caused to the plant (five-point scale) [3] | ECHCG PRE percentage damage caused to the plant (five-point scale) [3] | LOLPE POST percentage damage caused to the plant (five-point scale) [4] | LOLPE PRE percentage damage caused to the plant (five-point scale) [4] | SETFA POST percentage damage caused to the plant (five-point scale) [5] | SETFA PRE percentage damage caused to the plant (five-point scale) [5] |
| --- | --- | --- | --- | --- | --- | --- | --- | --- | --- | --- |
| CCc1cc(-c2ccc(C#N)cn2)cc(Cl)c1C1C(=O)CC2(CCN(C(=O)C3CC3)CC2)CC1=O [Compound A53] | 5 (5=80-100%) | 5 (5=80-100%) | 5 (5=80-100%) | 5 (5=80-100%) | 5 (5=80-100%) | 5 (5=80-100%) | 5 (5=80-100%) | 5 (5=80-100%) | 5 (5=80-100%) | 5 (5=80-100%) |
| CC#Cc1cc(C)c(C2C(=O)CC3(CCN(C(C)=O)CC3)CC2=O)c(Cl)c1 [Compound A55] | 5 (5=80-100%) | 5 (5=80-100%) | 5 (5=80-100%) | 5 (5=80-100%) | 5 (5=80-100%) | 5 (5=80-100%) | 5 (5=80-100%) | 5 (5=80-100%) | 5 (5=80-100%) | 5 (5=80-100%) |
| CC(=O)N1CCC2(CC1)CC(=O)C(c1c(C)cc(-c3ccc(C#N)cn3)cc1Cl)C(=O)C2 [Compound A56] | 5 (5=80-100%) | 3 (3=40-59%) | 5 (5=80-100%) | 3 (3=40-59%) | 5 (5=80-100%) | 4 (4=60-79%) | 5 (5=80-100%) | 5 (5=80-100%) | 5 (5=80-100%) | 5 (5=80-100%) |
| Cc1cc(-c2ccc(C#N)cn2)cc(Cl)c1C1C(=O)CC2(CCN(C(=O)C3CC3)CC2)CC1=O [Compound A57] | 5 (5=80-100%) | 5 (5=80-100%) | 5 (5=80-100%) | 5 (5=80-100%) | 5 (5=80-100%) | 5 (5=80-100%) | 5 (5=80-100%) | 5 (5=80-100%) | 5 (5=80-100%) | 5 (5=80-100%) |
| Cc1cc(-c2ccc(F)cn2)cc(Cl)c1C1C(=O)CC2(CCN(C(=O)C3CC3)CC2)CC1=O [Compound A58] | 5 (5=80-100%) | 5 (5=80-100%) | 5 (5=80-100%) | 5 (5=80-100%) | 5 (5=80-100%) | 5 (5=80-100%) | 5 (5=80-100%) | 5 (5=80-100%) | 5 (5=80-100%) | 5 (5=80-100%) |

Reference: patent US12590067B2, “Herbicidal cyclohexanedione derivatives” (SYNGENTA CROP PROTECTION AG, priority 2019, dated 2026)
